The values below come from article PMC11456916, “A screen for cell envelope stress uncovers an inhibitor of prolipoprotein diacylglyceryl transferase, Lgt, in Escherichiacoli” (iScience, 2024).

pIC50: −log10 of the molar value. Like-named read-outs stand apart in the source and are kept apart here.

Assay [1] relates to E. coli ΔtolC-pore harboring pPromrcsA-GFP-mobile. Description: Secondary screen of bioactive small molecules for rcsA bioreporter induction (agar diffusion). It is filed as cell-based. Conditions: 100 nL of 10 mM stock spotted on MOPS minimal agar, visual analysis. An excerpt:
To identify small molecules that act on the Gram-negative cell envelope, a set of 797 bioactive compounds that were previously identified to be antibacterial against efflux-deficient hyper-permeable E. coli (E. coli ΔtolC-pore) was screened to determine those that can induce the rcsA bioreporter on MOPS minimal medium. E. coli ΔtolC-pore is deficient in TolC-mediated drug efflux and expresses an outer-membrane pore encoded by fhuA,[46]^,[47] thereby allowing the capture of additional antibacterial chemical scaffolds that would normally be subject to efflux or are unable to traverse the E. coli outer membrane. As the compounds in the bioactive compound collection were all antibacterial at varying inhibitory concentrations, we conducted this secondary screen using a modified solid agar diffusion assay. This enabled testing of these antibacterial small molecules at a range of concentrations, which is often required to assess bioreporter induction. To that end, 100 nL aliquots of compounds from screening library plates were deposited onto discrete positions on MOPS agar impregnated with E. coli ΔtolC-pore harboring the reporter (Figure 3A). Compounds that induced reporter expression were determined through visual analysis of the screening plates following overnight growth by looking for signature green “halos” proximal to the zones of inhibition (Figure S4). […]
A general note: In agar diffusion tests the substance spreads into inoculated agar from a disc or well.

The next assay concerns E. coli BW25113. Description: MIC assay, wild-type E. coli with or without SPR741. It is filed as cell-based. Here is the method:
(§1) We next sought to determine whether we could achieve growth inhibition of wild-type E. coli using MAC-0452936 and an antibiotic adjuvant. […] To that end, we determined the MIC of MAC-0452936 against wild-type E. coli in the presence and absence of a sub-MIC concentration of SPR741 (Figure S8B). […] We leveraged this combination to characterize the spectrum of activity of MAC-0452936 against a panel of Gram-negative pathogens (Table 2). In the presence of 8 μg/mL SPR741, we observed MAC-0452936 activity against the clinical E. coli isolates C0244 and CFT073 at 2 μg/mL as well as against Salmonella Typhimurium SL1344 at 4 μg/mL.
(§2) For MIC assays, cultures of bacteria were grown in LB broth. Overnight cultures were diluted (1:100) into fresh LB media and grown to the mid-log phase of growth (OD600 ∼0.5). Subcultures were then normalized to an OD600 of 0.1, and diluted (1:5000) into assay media. Assay plates were then incubated for 18 h at 37°C, then OD600 was measured using a Biotek Neo plate reader.

The subject of the next assay is E. coli CO244. The experiment in a line: MIC assay with or without SPR741, E. coli CO244. It is filed as cell-based. Conditions: Escherichia coli. Here is the method: as §1, §2
Another assay has as its system S. Typhimurium SL1344. Description: MIC assay with or without SPR741, S. Typhimurium. To be noted: Salmonella enterica. The class given is cell-based. Here is the method:
as §1, §2

In a further assay the test system is K. aerogenes CO045. Description: MIC assay with or without SPR741, K. aerogenes. Conditions: for MIC: Klebsiella aerogenes. It is filed as cell-based, Klebsiella aerogenes. Here is the method: as §1, §2
The target of assay [2] is T1, prolipoprotein diacylglyceryl transferase, Lgt (Escherichia coli, UniProt P60955).
T1 construct: Expression, purification, and in vitro Lgt biochemical assay were conducted as described by Diao et al; made in house
The experiment in a line: In vitro Lgt biochemical assay (phosphatidylglycerol and Pal-IAAC peptide substrates). Further details: species or system E. coli. From the text: With both genetic and phenotypic evidence supporting MAC-0452936 inhibiting Lgt in E. coli, we next investigated whether MAC-0452936 could inhibit Lgt activity in vitro. Recently, a biochemical assay for Lgt activity was developed using phosphatidylglycerol and Pal-IAAC peptide as substrates.[12] […] As similar results were obtained using two different Lgt enzyme preparations, the inhibition observed by MAC-0452936 was not dependent on the preparation of the lipid matrix. Together, we present genetic, phenotypic, and biochemical evidence that MAC-0452936 inhibits the growth of E. coli through inhibition of Lgt. MAC-0452936 represents a previously undiscovered small molecule inhibitor of bacterial Lgt, and the oxime ester represents a promising chemical scaffold for antibiotic discovery.
Expression, purification, and in vitro Lgt biochemical assay were conducted as described by Diao et al.[12]

For another assay, the system named is E. coli ΔtolC-pore. Description: Selection of spontaneous resistance mutants. The class given is cell-based. To be noted: E. coli ΔtolC-pore plated on LB agar with 4×, 8× and 16× MIC. An excerpt: The point mutations in Lgt were the only mutations identified in all five isolates (the Illumina sequencing and BreSeq alignment files have been made available in an online data repository, https://zenodo.org/records/11068394). Lgt catalyzes the essential transfer of diacylglycerol from phosphatidyl-glycerol (PG) to the terminal cysteine of pre-prolipoproteins[48] and was also identified as a possible target in our CRISPRi screen for rcsA bioreporter induction (Figures 2E and S3). When mapped to a recently solved crystal structure of E. coli Lgt,[49] the three distinct variants identified in our resistant clones (A37T, V109A, and G138A) were found on three proximal α-helices in the substrate binding pocket of the enzyme (Figure 4B).
A culture of E. coli ΔtolC-pore was grown overnight in LB broth at 37°C with shaking, then, ∼6 × 10^8 CFU in 100 μL of LB broth was plated on LB agar plates containing 4, 8, or 16 μg/mL of MAC-0452936. Plates were then incubated at 37°C, and examined every 24 h for the emergence of resistant colonies. Colonies began to emerge after 48 h of incubation and were purified by restreaking on LB agar and LB agar containing the same concentrations of MAC-0452936 from which the colonies originally appeared. […] DNA samples were sequenced on the Illumina MiSeq platform (SeqCenter LLC) and reads were aligned to the E. coli BW25113 reference genome using Breseq[77] […]

T1 sequence (P60955 whole entry): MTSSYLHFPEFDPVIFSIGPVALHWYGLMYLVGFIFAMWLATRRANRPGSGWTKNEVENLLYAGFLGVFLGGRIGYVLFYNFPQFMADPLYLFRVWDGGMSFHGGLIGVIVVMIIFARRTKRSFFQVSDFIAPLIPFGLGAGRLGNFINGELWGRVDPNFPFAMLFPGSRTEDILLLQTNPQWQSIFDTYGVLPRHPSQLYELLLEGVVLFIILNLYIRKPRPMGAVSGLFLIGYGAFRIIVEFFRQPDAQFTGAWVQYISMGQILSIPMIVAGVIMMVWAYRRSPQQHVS

For the molecule `COc1ccc(C(=O)O/N=C(\c2cccs2)C(C)(C)C)cc1` [MAC-0452936, (Z)-2-Pivaloylthiophene O-(4-methoxybenzoyl) oxime], the “rcsA bioreporter (GFP) induction in secondary screen” value in assay [1] was “induced pPromrcsA-GFP”. For the same molecule, the MIC with E. coli BW25113 (Escherichia coli, BW25113, read-out: MIC, E. coli BW25113 + 0 μg/mL SPR741) is more than 64 µg/mL; in the assay with E. coli CO244 (CO244, read-out: MIC, E. coli CO244 + 8 μg/mL SPR741), 2 µg/mL; in the assay on E. coli CO244 (CO244, read-out: MIC, E. coli CO244 + 0 μg/mL SPR741), more than 64 µg/mL; in the assay on S. Typhimurium SL1344 (read-out: MIC, S. Typhimurium SL1344 + 0 μg/mL SPR741), more than 64 µg/mL; in the assay with S. Typhimurium SL1344 (read-out: MIC, S. Typhimurium SL1344 + 8 μg/mL SPR741), 4 µg/mL; in the assay with K. aerogenes CO045 (CO045, read-out: MIC, K. aerogenes CO045 + 8 μg/mL SPR741), more than 64 µg/mL. In the assay on K. aerogenes CO045 (CO045, read-out: MIC, K. aerogenes CO045 + 0 μg/mL SPR741), the MIC was more than 64 µg/mL. In the assay with E. coli BW25113 (growth inhibition, no SPR741, in words), the “activity against wild-type (WT) E. coli” value is “inactive”. The “MIC, K. aerogenes CO045 + 8 μg/mL SPR741” value with K. aerogenes CO045 (8 μg/mL SPR741) is recorded as “did not observe MAC-0452936 activity”. In addition, the pIC50 (usually the IC50 on a negative log10 scale, so that one unit is a factor of ten) in assay [2] (in vitro Lgt inhibition Amph-Lgt IC50, Lgt purified using amphipol lipid matrix) is 6.23; in assay [2] (in vitro Lgt inhibition DDM-Lgt IC50, Lgt purified using DDM lipid matrix), 5.84. The frequency of resistance in the assay with E. coli ΔtolC-pore was 2 x 10^−8. Besides, the resistant isolates identified entry in the assay on E. coli ΔtolC-pore was “five independent resistant isolates were generated”.
